# Laboratory results: patent US11254685B2, “Abuse-resistant long-acting release opioid prodrugs” (priority 2017, dated 2022)
# Like-named read-outs stand apart in the source and are kept apart here.
# How the values were obtained:
# [1] = Pharmacokinetic study in rats, single intramuscular injection, plasma prodrug and parent drug by LC-MS/MS; assay type: in vivo, Sprague-Dawley rats
# Method: General Procure: The formulations of opioid ester prodrugs are prepared to provide 180 mg/ml suspension by adding 1.8 g of prodrug to a 50 ml glass vial. To the solids is added […] of injection vehicle (2-3% sodium CMC, 0.2% polysorbate 20 in phosphate buffered saline (PBS) pH 7). The resulting mixture is sonicated for 10 min and left standing. The contents of the vial is then shaken until a uniform, clump-free suspension is obtained prior to dosing.
# Twelve male Male Sprague-Dawley rats with a body weight approximately 250 g are used in the study. A single intramuscular injection of ester prodrug (180 mg) is administered to rats. Blood samples is collected at 0 (pretreatment) 0.5, 1, 2, 4, 8, 12 and 24 days after administration. Blood is collected with commercially available plastic tubes containing a clot activator. Within 10 min of collection, blood is centrifugation at 2.500 g for 10 min. Plasma is separated and frozen at −18° C. until analyzed by LC-MS/MS. Both prodrug and its corresponding parent drug are analyzed. The pharmacokinetic parameters (AUC, Tmax, Cmax, T1/2, etc) of the test articles are compared to compare the performance of prodrugs to their parent drugs.
# Pharmacokinetic Studies for Compounds 2, 3, and 7. Pharmacokinetic studies were conducted for three compounds (Compounds 2, 3 and 7) in rats. The formulations were prepared either in sesame oil (Compound 2, 100 mg eq/mL) or aqueous suspension (Compounds 3 and 7, 100 mg eq/mL and 60 mg eq/mL, respectively). The dosage “eq” refers to the equivalent dosing amount of the respective parent drug, e.g., oxymorphone or hydromorphone in this Example. The sesame oil formulation contains 1.2% benzyl alcohol. The suspension formulation was prepared in PBS buffer containing 2% CMC and 0.2% Tween 80. The particle sizes of the testing compounds in suspension were kept under 10 micron. Both oil and suspension formulations were sterilized by electronic beam before administered to Sprague-Dawley rats.
# Twelve Male Sprague-Dawley rats with body weight of approximately 250 gram were randomly divided into three groups. The rats were housed in cages for at least 5 days prior to entering the study and had free access to standard pellets and water during the period. The formulations (0.05 mL) were administered to rats by intra muscular injection via hind leg. Blood (0.10 mL) was sampled by individual tail vein puncture at the following time points: 0.5, 2, 8 hours, 1, 3, 6, 13, 27 days post-dose. Blood was collected into K2EDTA coated tubes and centrifuged at 4° C. at 2000 g in for 10 min to obtain plasma. Plasma (0.05 mL) was immediately quenched with 100 uL methanol/acetonitrile (1:1) containing 50 ng/mL ISTD (Terfenadine and Buspirone). The mixture was vortexed for 1 min and centrifuged at 4000 rpm for 15 min. Supernatant was diluted 2 fold with 0.1% FA in water for injection. Both prodrug and the drug were analyzed using LC-MS/MS on AB Sciex API 5500. The pharmacokinetic parameters were calculated and reported as following.
# [2] = monomeric fatty acid, aqueous; Vorum et al. 1992; cited from earlier work
# [3] = analyte prodrug Compound 7 in plasma, Compound 7 IM 102.5 mg/kg, aqueous suspension, N = 4, mean
# [4] = male, Sprague-Dawley, rat, analyte prodrug Compound 7 in plasma, Compound 7 IM 102.5 mg/kg, aqueous suspension, N = 4, mean
# [5] = analyte prodrug Compound 3 in plasma, Compound 3 IM 119.14 mg/kg, aqueous suspension, N = 4, mean
# [6] = oxymorphone / Compound 3, Compound 3 IM 119.14 mg/kg, N = 4, mean
# [7] = analyte prodrug Compound 2 in plasma, Compound 2 IM 29.7 mg/kg, sesame oil formulation, Rat #14
# [8] = analyte prodrug Compound 2 in plasma, Compound 2 IM 118.11 mg/kg, sesame oil formulation, Rat #1-3, mean
# [9] = oxymorphone / Compound 2, Compound 2 IM 29.7 mg/kg, Rat #14
# [10] = oxymorphone / Compound 2, Compound 2 IM 118.11 mg/kg, Rat #1-3, mean
molecule,measurement,setting,value
"CCCCCCCCCCCCCCCCCCCC(=O)Oc1ccc2c3c1O[C@H]1C(=O)CC[C@H]4[C@@H](C2)N(C)CC[C@]314 [Compound 7, Hydromorphone eicosanate]",AUC Extr,[1]; [3],4.36%
same,AUCInf/D,[1]; [3],27.8 kg·ng·h/mL/mg
same,AUC(0-inf),[1]; [4],2850 ng·h/mL
same,AUC(0-t),[1]; [4],2760 ng·h/mL
same,MRT inf,[1]; [4],138 h
same,half-life,[1]; [4],64.4 h
same,Cmax,"[1]; male, Sprague-Dawley, rat, analyte prodrug Compound 7 in plasma, Compound 7 IM 102.5 mg/kg, aqueous suspension, N = 4, mean, read-out: Cmax",45.6 ng/mL
same,tmax,"[1]; male, Sprague-Dawley, rat, analyte prodrug Compound 7 in plasma, Compound 7 IM 102.5 mg/kg, aqueous suspension, N = 4, mean, read-out: tmax",6.13 h
CCCCCCCCCCCC(=O)O [laurate],solubility,[2],greater than 500 μM
CCCCCCCCCCCCCC(=O)O [myristate],solubility,[2],20 to 30 µM
Oxymorphone eicosanate [Compound 3],AUC Extr,"[1]; analyte parent drug oxymorphone in plasma, Compound 3 IM 119.14 mg/kg, aqueous suspension, N = 4, mean",63.7%
same,AUC Extr,[1]; [5],29.9%
same,AUCInf,[1]; [5],2355 ng·h/mL
same,AUCInf/D,[1]; [5],19.8 kg·ng·h/mL/mg
same,AUClast,[1]; [5],1711 ng·h/mL
same,Cmax,[1]; [5],4.79 ng/mL
same,MRTInf,[1]; [5],484 h
same,t1/2,[1]; [5],263 h
same,tmax,[1]; [5],212 h
same,AUClast Ratio (Parent/Pro),[1]; [6],4.44
same,Cmax Ratio (Parent/Pro),[1]; [6],3.22
Oxymorphone hexadecanate [Compound 2],AUC Extr,"[1]; analyte parent drug oxymorphone in plasma, Compound 2 IM 29.7 mg/kg, sesame oil formulation, Rat #14",0.99%
same,AUC Extr,"[1]; analyte parent drug oxymorphone in plasma, Compound 2 IM 118.11 mg/kg, sesame oil formulation, Rat #1-3, mean",5.71%
same,AUC Extr,[1]; [7],42.6%
same,AUCInf,[1]; [7],30.3 ng·h/mL
same,AUCInf/D,[1]; [7],1.02 kg·ng·h/mL/mg
same,AUClast,[1]; [7],17.4 ng·h/mL
same,Cmax,[1]; [7],0.54 ng/mL
same,MRTInf,[1]; [7],108 h
same,t1/2,[1]; [7],76 h
same,tmax,[1]; [7],2.00 h
same,AUC Extr,[1]; [8],39.8%
same,AUCInf,[1]; [8],101 ng·h/mL
same,AUCInf/D,[1]; [8],0.857 kg·ng·h/mL/mg
same,AUClast,[1]; [8],51.3 ng·h/mL
same,Cmax,[1]; [8],1.62 ng/mL
same,MRTInf,[1]; [8],156 h
same,t1/2,[1]; [8],130 h
same,tmax,[1]; [8],3.50 h
same,AUClast Ratio (Parent/Pro),[1]; [9],151
same,Cmax Ratio (Parent/Pro),[1]; [9],21
same,AUClast Ratio (Parent/Pro),[1]; [10],161
same,Cmax Ratio (Parent/Pro),[1]; [10],63.7
